This is an account of results in patent US20070207987A1, “Androgen Modulators” (WARNER-LAMBERT COMPANY LLC, priority 2004, published 2007).

Read-outs that look alike come from different tables or passages of the source.

One data set addresses T1, hAR (Homo sapiens, UniProt P10275).
T1 construct: made in house; host or cells: baculovirus/Sf9 insect cells
T1 sequence (P10275 1-920): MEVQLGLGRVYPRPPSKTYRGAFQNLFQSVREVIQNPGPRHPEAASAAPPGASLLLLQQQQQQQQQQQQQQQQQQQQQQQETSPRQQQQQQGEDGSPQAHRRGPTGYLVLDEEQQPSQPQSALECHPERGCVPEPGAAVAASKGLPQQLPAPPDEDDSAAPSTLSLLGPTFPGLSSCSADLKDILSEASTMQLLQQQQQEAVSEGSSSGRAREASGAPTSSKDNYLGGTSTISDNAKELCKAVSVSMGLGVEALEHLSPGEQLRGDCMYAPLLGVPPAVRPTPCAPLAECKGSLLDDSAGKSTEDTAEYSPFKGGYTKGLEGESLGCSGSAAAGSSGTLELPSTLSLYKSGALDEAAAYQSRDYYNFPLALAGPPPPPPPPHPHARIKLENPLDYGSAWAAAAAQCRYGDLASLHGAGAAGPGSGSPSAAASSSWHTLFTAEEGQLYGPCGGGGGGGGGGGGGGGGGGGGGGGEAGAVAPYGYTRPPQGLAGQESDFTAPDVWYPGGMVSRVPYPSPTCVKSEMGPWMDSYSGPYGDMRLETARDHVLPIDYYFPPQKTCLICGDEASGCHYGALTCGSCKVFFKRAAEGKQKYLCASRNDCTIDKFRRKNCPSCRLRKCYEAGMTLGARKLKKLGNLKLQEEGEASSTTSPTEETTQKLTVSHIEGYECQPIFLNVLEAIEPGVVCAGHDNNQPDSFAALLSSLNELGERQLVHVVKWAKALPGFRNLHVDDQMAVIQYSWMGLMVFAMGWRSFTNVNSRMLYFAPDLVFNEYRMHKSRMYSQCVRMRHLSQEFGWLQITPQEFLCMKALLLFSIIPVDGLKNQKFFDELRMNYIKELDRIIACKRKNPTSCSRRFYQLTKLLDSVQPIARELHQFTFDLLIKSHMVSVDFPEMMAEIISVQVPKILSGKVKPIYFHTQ
The experiment in a line: Competitive binding of 3H-DHT to hAR extracts. To be noted: baculovirus/Sf9 hAR extract, 1 nM 3H-DHT, one hour at 4° C., mean of multiple tests. As for the experimental part:
The compounds of Formula I have affinity for the androgen receptor. […] The description below describes how the assay was carried out.
Competitive binding analysis was performed on baculovirus/Sf9 generated hAR extracts in the presence or absence of different concentrations of test agent and a fixed concentration of ^3H-dihydrotestosterone (^3H-DHT) as tracer. This binding assay method is a modification of a protocol previously described (Liao S., et. al. J. Steroid Biochem. 20:11-17 1984). Briefly, progressively decreasing concentrations of compounds are incubated in the presence of hAR extract (Chang et al. P.N.A.S. Vol. 89, pp. […], 1992), hydroxylapatite, and 1 nM ^3H-DHT for one hour at 4° C. Subsequently, the binding reactions are washed three times to completely remove excess unbound ^3H-DHT. hAR bound ^3H-DHT levels are determined in the presence of compounds (i.e. competitive binding) and compared to levels bound when no competitor is present (i.e. maximum binding). Compound binding affinity to the hAR is expressed as the concentration of compound at which one half of the maximum binding is inhibited. Table I below provides the results that were obtained for selected compounds (reported data is the mean of multiple tests as shown below)

A further data set concerns the target androgen receptor (Homo sapiens, UniProt P10275). The experiment in a line: AR antagonist cell assay (MMTV-luciferase reporter, MDA-MB453-MMTV clone 54-19). Format: cell-based. The protocol:
The compounds ability to antagonize the effects of androgen on the androgen receptor were determined in a whole cell assay as described immediately below.
Experimental Procedure for AR Antagonist Cell Assay
This cell line is a stable transfected cell line with MDA-MB453 cell background (a human breast tumor cell line expressing androgen receptor). A MMTV minimal promoter containing ARE was first cloned in front of a firefly luciferase reporter gene. Then the cascade was cloned into transfection vector pUV120puro. Electroporation method was used for transfecting MDA-MB-453 cell. Puromycin resistant stable cell line was selected.
Cell Culture Media and Reagents:
Culture medium: DMEM (high glucose, Gibco cat #: 11960-044), 10% FBS, and 1% L-glutamine
Plating medium: DMEM (phenol red free), 10% charcoal treated HyClone serum, 1% L-glutamine
Assay medium: DMEM (phenol red free), 1% charcoal treated HyClone serum, 1% L-glutamine, and 1% penicillin/streptomycin
3× luciferase buffer: 2% beta-mercaptoethanol, 0.6% ATP, 0.0135% luciferine in cell lysis buffer
• 1. Cells are maintained in culture medium, splitting cells when they reach 80-90% confluence • 2. To test compounds, 10,000 cells/well are plated to opaque 96 cell culture plate in 100 ul/well plating medium, culture for overnight at 37° C. in cell culture incubator • 3. Carefully remove plating medium, then add 80 ul/well of pre-warmed assay medium, add 10 ul/well testing compound (final concentration at) 1000 nM, 200 nM, 40 nM, 8 nM, 1.6 nM, and 0.32 nM), incubate at 37° C. for 30 minutes • 4. Add 10 ul/well freshly prepared DHT (final concentration at 100 pM) to each well, incubate at 37° C. for 17 hr (overnight) • 5.
The results are reported as the mean of multiple tests as described below (the numbers of tests are indicated in the footnote). N.D. denotes that the compound was not tested.

The next data set relates to male Syrian hamsters. As to the kind of experiment: Animal model for inhibition of sebum production (hamster ear). Format: in vivo, Syrian hamster. To be noted: five days a week, 4 weeks; for % CE reduction / % WE reduction: vs vehicle control. As for the experimental part:
Luderschmidt et al. describes an animal model for testing whether compounds are capable of modulating sebum secretion. Arch. Derm. Res. 258, 185-191 (1977). This model uses male Syrian hamsters, whose ears contain sebaceous glands. The products of Examples 1 and 2 were screened in this model.
Testing for sebum inhibition was carried out in the following manner. Male Syrian hamsters aged 9 to 10 weeks were introduced into the laboratory environment and acclimated for 2 weeks prior to use in the study. Each group consisted of 5 animals and run in parallel with vehicle and positive controls. Prior to administration, a sufficient quantity each compound was dissolved in 1 mL of a solvent consisting of transcutol, propylene glycol, and ethanol (2/2/6 v/v/v) to achieve the final concentration described in Table III.
Animals were dosed topically twice daily, five days a week, for 4 weeks. Each dose consisted of 25 micro liters of vehicle control or drug. The dose was applied to the ventral surfaces of both the right and left ears. All animals were sacrificed approximately 18-24 hours after the final dose. The right ears were collected from each animal and used for sebum analysis.
The ears were prepped for HPLC analysis in the following manner. One 8 mm distal biopsy punch was taken, just above the anatomical “V” mark in the ear to normalize the sample area. The punch was pulled apart. The ventral biopsy surface (the area where the topical dose was directly applied to the sebaceous glands) was retained for testing and the dorsal surface of the biopsy punch was discarded.
Tissue samples were blown with N2 gas and stored at −80° C. under nitrogen until HPLC analysis. In addition to ear samples, an aliquot of each drug and vehicle (at least 250 ul) was also stored at −80° C. for inclusion in the HPLC analysis.
HPLC analysis was carried out on an extract of the tissue sample. Tissue samples were contacted with 3 ml of solvent (a 4:1 admixture of 2,2,4-trimethylpentane and isopropyl alcohol). The mixture was shaken for 15 minutes and stored overnight at room temperature, protected from light. The next morning 1 milliliter of water was added to the sample and shaken for 15 minutes. The sample was then centrifuged at approximately 1500 rpm for 15 minutes. Two ml of the organic phase (top layer) was transferred to a glass vial, dried at 37° C., under nitrogen, for approximately 1 hour, and then lyophilized for approximately 48 hours. The samples were then removed from the lyophilizer and each vial was reconstituted with 600 μl of solvent A (trimethylpentane/tetrahydrofuran (99:1). The samples were then recapped and vortexed for 5 minutes.
200 μl of each sample was then transferred to a pre-labeled 200 μl HPLC vial with 200 μL glass inserts. The HPLC vials were placed in the autosampler tray for the Agilent 1100 series HPLC unit. The Agilent 1100 HPLC system consisted of a thermostated autosampler, a quarternary pump, a column heater, and an A/D interface module. All components were controlled by Agilent ChemStation software. A Waters Spherisorb S3W 4.6×100 mm analytical column was maintained at 30° C. by the Agilent column heater unit. The HPLC autosampler was programmed to maintain the sample temperature at 20 C. throughout the run.
10 uL of each sample was injected in triplicate into the column. Two solvents were used for the solvent gradient. Solvent A was an admixture of trimethylpentane and tetrahydrofuran (99:1). Solvent B was ethylacetate. The gradient utilized is described in the table below: […]
The Sedex 75 Evaporative Light Scattering Detector (ELSD) was operated at 45° C. with a gain of 5, and N2 pressure maintained at 3.1 bar. Analog signal obtained by the instrument was sent to the Agilent A/D interface module where it was converted to a digital output. The conversion was based on a 10000 mAU/volt set point and the data rate was set at 10 Hz (0.03 min). […]

For the next data set, the system named is patients. To be noted: after 7 years of treatment; cited from earlier work.

Broadly, the IC50 is the concentration that gives 50% inhibition. Take `CC1(C)COC(=O)C1Oc1ccc(C#N)c(C(F)(F)F)c1` (racemic) [Example 1, (±)-4-(4,4-Dimethyl-2-oxo-tetrahydro-furan-3-yloxy)-2-trifluoromethyl-benzonitrile)]: the IC50 on hAR (ARB (IC50)) was 122 nM. The compound also registered an IC50 on androgen receptor of 60 nM. In the data set with male Syrian hamsters (1% w/v topical twice daily), the “Sum of WE & WE” value is listed as 128, the “% CE reduction” value came out at 55% and the “% WE reduction” value turned out to be 73%.

What is called melting point is the temperature of the solid-liquid transition. On to `N#Cc1ccc(OC2CCOC2=O)cc1C(F)(F)F` (racemic) [Example 4, (±)-4-(2-Oxo-tetrahydro-furan-3-yloxy)-2-trifluoromethyl-benzonitrile], for which the melting point was 120 °C. Further, the IC50 at hAR (read-out: ARB (IC50)) was determined as 5850 nM.

Take `N#Cc1ccc(OC2CCOC2=O)cc1C(F)(F)F` (single isomer, unassigned; (+)) [Example 5, (+)-4-(2-Oxo-tetrahydro-furan-3-yloxy)-2-trifluoromethyl-benzonitrile]: the melting point fell in the range of 107 to 108 °C. The IC50 at hAR (read-out: ARB (IC50)) came to 9800 nM.

Consider `N#Cc1ccc(OC2CCOC2=O)cc1C(F)(F)F` (single isomer, unassigned; (-)) [Example 6, (−)-4-(2-Oxo-tetrahydro-furan-3-yloxy)-2-trifluoromethyl-benzonitrile], for which, on hAR (read-out: ARB (IC50)), the IC50 came to 1670 nM.

`CC1(C)COC(=O)[C@@H]1Oc1ccc(C#N)c(C(F)(F)F)c1` [Example 2, (R)-(+)-4-(4,4-Dimethyl-2-oxo-tetrahydro-furan-3-yloxy)-2-trifluoromethyl-benzonitrile] gave a melting point of 89.9 to 90.7 °C. Further, at hAR (ARB (IC50)), the IC50 turned out to be 71 nM. This compound also displayed an IC50 against androgen receptor of 47 nM. In addition, in the data set with male Syrian hamsters (3% w/v topical twice daily), the “Sum of WE & WE” value is 171, the “% CE reduction” value is reported as 79% and the “% WE reduction” value was 92%.

On to `CC1(C)COC(=O)[C@H]1Oc1ccc(C#N)c(C(F)(F)F)c1` [Example 3, (S)-(−)-4-(4,4-Dimethyl-2-oxo-tetrahydro-furan-3-yloxy)-2-trifluoromethyl-benzonitrile], for which the melting point lay within 83.1 to 84.4 °C. Moreover, the IC50 at hAR (ARB (IC50)) was more than 10000 nM. The IC50 at androgen receptor (inhibition of induction by 100 pM DHT, 17 hr, mean of multiple tests, read-out: ARCell (IC50)) is more than 1000 nM.

On to `NCCCC(O)(P(=O)(O)O)P(=O)(O)O` [alendronate], for which the “Increase in spinal BMD” value with patients is on record as not above 11%.
